Measured values published in paper doi:10.1101/2025.07.08.663703, “Recruitment of Mre11 to recombination sites during meiosis” (bioRxiv, 2025).
Ends that are not written are not given here.

What was measured:
[1] = test system: MMS-induced Mre11myc foci; assay: Immunofluorescence of MMS-induced Mre11myc foci in vegetative yeast, 1,6-hexanediol treatment; assay type: cell-based, Saccharomyces cerevisiae SK1; conditions: 5% 1,6-hexanediol, 4–5 minutes, spheroplasts, vegetative cells
Procedure: Following standard protocols, strains were patched on YPG plates, mated and streaked on YPD plates, and selected diploid colonies grown in liquid YPD at 30°C, 250 rpm, overnight. For meiotic synchronization, diploid cultures grown overnight in YPD were transferred to YPA (1% yeast extract, 2% peptone, 1% potassium acetate) at OD600 0.2 and grown for 12–14 hours at 30°C, 250 rpm. […]
Slides were blocked with 90% FBS, 1× PBS for 1 hour at room temperature in a humid chamber and then incubated with primary antibody (mouse mAb anti-myc, 1:200 (2276S, Cell Signaling Technology), rabbit anti-phospho H2A-S129, 1:200 (ab15083, abcam)) diluted in 3% BSA, 1× PBS in a humid chamber for 2 hours at 37°C or overnight at 4°C. Slides were washed three times with 1× PBS in a Coplin jar, were incubated with secondary antibody (goat anti-mouse IgG Alexa Fluor™ Plus 488, 1:200 (A32723, Invitrogen), donkey anti-rabbit IgG Alexa Fluor™ 546, 1:200 (A10040, Invitrogen) diluted in 3% BSA, 1× PBS in a humid chamber at 37°C for 1 hour. Slides were washed in the dark three times for 5 mins with 1× PBS, mounted with Vectashield containing DAPI (Vector Labs). Images were captured on a Zeiss Axio Observer with a 100×/1.4 NA oil immersion objective and were analyzed in ImageJ.

[2] = test system: mre11-ΔC49 and mre11-ΔIDR yeast strains; assay: MMS and CPT sensitivity assay (spotting of serial dilutions); assay type: cell-based, Saccharomyces cerevisiae SK1; conditions: ten-fold serial dilutions on YPD plates, two days at 30°C; for resistance of mre11-ΔC49 mutant: mre11-ΔC49 strain; for resistance of mre11-ΔIDR mutants: mre11-ΔIDR strain
Procedure: Following standard protocols, strains were patched on YPG plates, mated and streaked on YPD plates, and selected diploid colonies grown in liquid YPD at 30°C, 250 rpm, overnight. For meiotic synchronization, diploid cultures grown overnight in YPD were transferred to YPA (1% yeast extract, 2% peptone, 1% potassium acetate) at OD600 0.2 and grown for 12–14 hours at 30°C, 250 rpm. Once the cultures reached OD600 between 1.2–1.6, cells were washed once with prewarmed sterile water and immediately transferred to sporulation medium supplemented with amino acids (320 μL amino acid complementation media for 100 mL of sporulation media (SPM)) and were kept shaking at 30°C, 250 rpm during the entire meiotic time-course. For MMS and CPT (Sigma) sensitivity assays, serial dilutions of overnight cultures were spotted on freshly prepared YPD-MMS or YPD-CPT plates containing indicated percentage of MMS or CPT, respectively. Plates were grown for two days at 30°C. For immunofluorescence of vegetatively growing cells, overnight cultures were refreshed by diluting to OD600 0.2 and grown for 3–4 hours to reach OD600 1.2–1.4 before subjecting to MMS or MMS followed by 5% 1,6-hexanediol treatment. For 5% 1,6-hexanediol treatment, cells were first converted to spheroplasts and then treated with 5% 1,6-hexanediol for 4–5 minutes. Spheroplasts were then immediately washed, lysed, and fixed using protocol described below.

Smt3 = target: T1, Smt3 (Saccharomyces cerevisiae, UniProt Q12306); assay: NMR chemical shift perturbation of U-[13C,15N] Smt3 by SIM3 peptides; assay type: binding, yeast (S. cerevisiae); conditions: [1H,15N] HSQC, 1.2 molar equivalents of peptide, 0.3 mM U-[13C,15N] Smt3, 20 mM sodium phosphate, 20 mM NaCl, pH 6.5, 10% D2O, 298 K, 800 MHz
T1 construct: 6xHis (C); made in house; host or cells: E. coli BL21 (DE3)pLysS
Procedure: For the production of the doubly labeled U-[^13C, ^15N] […] The purification protocol remained the same as described above.
The samples contained 0.3–0.6 mM of U-[^13C,^15N] […] All NMR spectra were acquired at 298 K on a Bruker Avance III HD 800 MHz spectrometer, equipped with a TCI cryoprobe. The NMR data were processed in TopSpin 3.6 (Bruker) or NMRPipe[70] and analyzed in CCPNMR[71]. Assignments of Smt3 backbone amide resonances were taken from literature[72] and verified by 3D HNCACB, HN(CO)CACB, and ^15N-edited NOESY-HSQC spectra. […] The assigned ^1H, ^13C and ^15N chemical shifts of the free and bound Smt3 have been deposited in the Biological Magnetic Resonance Bank (http://www.bmrb.wisc.edu/) under the accession number 53209.
The NMR binding experiments were performed by an incremental addition of wild-type or mutant SIM peptides (1.2 mM stocks in the working buffer) to 0.3 mM samples of U-[^13C,^15N] Smt3, with the spectral changes monitored in [^1H,^15N] HSQC spectra acquired at each increment. The average chemical shift perturbations (Δδavg) were calculated as Δδavg = (ΔδX^2/50 + ΔδH^2/2)^0.5, where ΔδX and ΔδH are the chemical shift changes of the backbone amide nitrogens or methyl carbons (ΔδX) and protons (ΔδH) of Smt3 residues upon addition of 1.2 molar equivalents of SIM peptides, and n = 50 or 9 for the backbone amide and methyl groups, respectively.

Mer2 [3] = assay: Co-expression NiNTA pulldown of MBP-Mre11-C49 (prey) with HisSUMO-Mer2 (bait); assay type: binding, S. cerevisiae; conditions: co-expression in E. coli, anti-MBP elution/input signal normalized to wild type, at least seven independent samples
Source text: The vector for expression of ^MBPMre11-C49 and ^HisSUMOMer2 (pCCB1040) was based on a pET-Duet1 vector with the sequence coding for ^MBPMre11-C49 cloned within the first position (SacI site) and the sequence coding for ^HisSUMOMer2 cloned at the second position (XhoI site). The EQEK mutations and LLK mutations were introduced by PCR amplification of pCCB1040 with primers cb1561 and cb1562, and pp84 and pp85, followed by phosphorylation and self-ligation to yield plasmids pry59 and pry61, respectively.
Wild-type and mutant MBP-tagged Mre11-C49 and HisSUMO-tagged Mer2 were co-expressed in 50 mL of E. coli BL21 cultures and purified by affinity chromatography on Ni-NTA resin following a procedure similar to that described above. Briefly, cells were lysed by sonication and centrifuged at maximum speed for 30 mins at 4°C on a table-top centrifuge. A small fraction of the supernatant was collected as ‘Input’ and the remainder was incubated with 120 μL Ni-NTA resin, pre-equilibrated with wash buffer (25 mM HEPES pH 7.5, 20 mM imidazole, 0.1 mM DTT, 0.1 mM PMSF, 10% glycerol), for 1 hour on a rotating wheel at 4°C. The resin was washed twice with 2 ml in batch and five times with 2 ml on column before eluting with 250 μL of 500 mM imidazole in wash buffer. […]

Mer2 [4] = assay: In vitro colocalization of Mre11 with Mer2 condensates; assay type: binding, S. cerevisiae
Procedure: Proteins were diluted to a 10× stock of their appropriate working concentrations in their respective storage buffers. […] Unless specified otherwise, all reactions contained 400 nM ^Alexa488Mre11 or 100 nM ^eGFPMRX. A typical 20 μL binding reaction contained 2 μL protein of 10× stock of indicated concentration, 10 μL of 2× reaction buffer, and 150 ng of supercoiled pUC19 (5.7 nM). Typical reactions were assembled at 30°C for 30 mins with gentle mixing every 5 mins, unless mentioned otherwise. 5 μL was dropped onto a microscope slide and covered with a coverslip. All images were captured on a Zeiss Axio Observer with a 100×/1.4 NA oil immersion objective except for images provided in Figure 4G which were captured on Leica Stellaris DMI 8 confocal microscope with a 63x/1.2 NA water immersion objective. Images were analyzed with ImageJ using a custom-made script. In brief, 129.24 × 129.24-μm (2048 × 2048-pixel) images were thresholded to mean intensity of the background plus three times the standard deviation of the background. Masked foci were counted and the intensity inside the focus mask was integrated. Data points represent averages of at least 8–10 images per sample. Data were analyzed using Graphpad Prism 10.4.0.

T1 sequence (Q12306 whole entry): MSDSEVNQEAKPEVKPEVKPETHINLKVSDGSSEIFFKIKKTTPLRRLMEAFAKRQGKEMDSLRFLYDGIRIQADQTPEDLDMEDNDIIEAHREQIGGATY

Row | Molecule | resistance of mre11-ΔC49 mutant [2] | resistance of mre11-ΔIDR mutants [2] | interaction of Mre11-C49 and Mer2 in pulldown (anti-MBP immunoblot) (Mer2 [3]) | further results
1 | OCCCCCCO [1,6-hexanediol] |  |  |  | effect on MMS-induced Mre11 foci [1]: readily dissolved MMS-induced foci
2 | COS(C)(=O)=O [MMS, methylmethanesulfonate] | resistant | as resistant to MMS or CPT as wild-type cells |  | 
3 | CC[C@@]1(O)C(=O)OCc2c1cc1n(c2=O)Cc2cc3ccccc3nc2-1 [camptothecin] | resistant | as resistant to MMS or CPT as wild-type cells |  | 
4 | ENDIIMVSTDE [wild-type SIM3 peptide] |  |  |  | backbone amide chemical shift perturbation of Smt3 (Smt3): induced strong backbone amide chemical shift to Smt3 residues I35, F36, F37, K38, I39 and R46
5 | Mre11-C49: Mre11 C-terminal residues (644–692) (SYGLLNGRKTKTKTRPAASTKTASRRGKGRASRTPKTDILGSLLAKKRK; also: MBP fusion, end not given here) |  |  | directly binds Mer2 | localization of Mre11-C49 around Mer2 condensates (Mer2 [4]; 800 nM mScarletMre11-C49 and 200 nM eGFPMer2, 30 min): forms a halo-like structure around Mer2 condensates; independent condensate formation of Mre11-C49 (Mer2 [4]; 800 nM mScarletMre11-C49 without eGFPMer2): does not form condensates independently
6 | Mre11-LLK: Mre11-C49 with L683, L686, and K690 mutated to alanine (SYGLLNGRKTKTKTRPAASTKTASRRGKGRASRTPKTDIAGSALAKARK; also: MBP fusion, end not given here) |  |  | strongly decreased the interaction between the two partners | 
